Laboratory results: US8163909B2, “Substituted hydroxyethyl amine compounds as beta-secretase modulators and methods of use” (Amgen Inc., priority 2007, dated 2012)
Read-outs that look alike come from different tables or passages of the source.

Key:
[1] = system: Aβ40 in conditioned medium of cells stably expressing Amyloid Precursor Protein (APP); assay: In vitro BACE cell-based assay (Aβ40 in conditioned medium, sandwich ELISA);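 further: compounds added as a dilution series, secreted peptide quantified by europium time-resolved fluorescence readout, potency fitted from percent of control versus compound concentration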
[2] = target: Beta Secretase enzyme (BACE) (Homo sapiens, UniProt P56817); assay: In vitro enzymatic BACE FRET (fluorescence resonance energy transfer) assay; type: biochemical;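 further: fluorescence read after 1 h with 50 nM quenched peptide substrate spanning the BACE cleavage site, in pH 4.2 acetate buffer containing 10% DMSO and nonionic detergent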
[3] = BACE enzyme assay, read-out: BACE1 FRET assay (IC50)
[4] = Homo sapiens, HEK293, Table 2, HEK cells, read-out: HEK cell assay
[5] = Table 2, read-out: BACE1 FRET assay
[6] = Homo sapiens, HEK293, cell-based assay, HEK cells, IC50's in uM, read-out: HEK cell assay
[7] = BACE enzyme assay, IC50's in uM, read-out: BACE1 FRET assay
[8] = Homo sapiens, HEK293, HEK cells, cell-based assay, read-out: HEK cell assay (IC50)
[9] = BACE enzyme FRET assay, read-out: BACE1 FRET assay (IC50)
[10] = Homo sapiens, HEK293, HEK cell-based assay, IC50's in uM, read-out: HEK cell assay

Beta Secretase enzyme (BACE), sequence (P56817 46-501): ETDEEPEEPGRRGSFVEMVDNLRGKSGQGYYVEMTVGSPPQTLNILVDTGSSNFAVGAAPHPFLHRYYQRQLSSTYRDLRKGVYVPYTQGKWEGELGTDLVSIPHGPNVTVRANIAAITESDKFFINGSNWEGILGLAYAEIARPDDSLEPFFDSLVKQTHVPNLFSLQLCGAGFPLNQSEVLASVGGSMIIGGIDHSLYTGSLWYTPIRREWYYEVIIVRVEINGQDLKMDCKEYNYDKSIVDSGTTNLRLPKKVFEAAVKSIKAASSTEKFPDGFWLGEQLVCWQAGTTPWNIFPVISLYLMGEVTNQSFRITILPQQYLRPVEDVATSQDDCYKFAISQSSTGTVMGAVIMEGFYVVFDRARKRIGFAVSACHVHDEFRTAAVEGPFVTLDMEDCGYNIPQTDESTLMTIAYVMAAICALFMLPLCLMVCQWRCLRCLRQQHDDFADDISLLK

“1-cyclobutyl-N-((1S,2R)-3-(((4′S)-6′-(2,2-dimethylpropyl)-3′,4′-dihydrospiro[cyclobutane-1,2′-pyrano[2,3-b]pyridin]-4′-yl)amino)-1-((4-fluorophenyl)methyl)-2-hydroxypropyl)-5-oxo-3-pyrrolidinecarboxamide [compound 67]” gave an IC50 ([1]; HEK cells, cell-based assay, read-out: HEK cell assay (IC50)) of 0.0625 µM and an IC50 [2, 3] of 0.471 µM.
Work on `C[C@H](F)C(=O)N[C@@H](Cc1ccc2c(c1)OCO2)[C@H](O)CN[C@H]1CC2(CCC2)Oc2ncc(CC(C)(C)C)cc21` [Example 483] yielded an IC50 [1, 4] of 0.049 µM and an IC50 [2, 5] of 0.018 µM.
`C[C@@H](F)C(=O)N[C@@H](Cc1ccc2c(c1)OCO2)[C@H](O)CN[C@H]1CC2(CCC2)Oc2ncc(CC(C)(C)C)cc21` [Example 484, (2R)-N-((1S,2R)-1-(1,3-benzodioxol-5-ylmethyl)-3-(((4′S)-6′-(2,2-dimethylpropyl)-3′,4′-dihydrospiro[cyclobutane-1,2′-pyrano[2,3-b]pyridin]-4′-yl)amino)-2-hydroxypropyl)-2-fluoropropanamide] was tested, and the IC50 [1, 4] was 0.056 µM and the IC50 [2, 5] was 0.029 µM.
`C#Cc1ccc(C[C@H](NC(=O)COC)[C@H](O)CN[C@H]2CC3(CCC3)Oc3ncc(CC(C)C)cc32)cc1` [Example 855] gave an IC50 [1, 6] of 0.174 µM and an IC50 [2, 7] of 0.062 µM.
`C#Cc1ccc(C[C@H](NC(=O)COC)[C@H](O)CN[C@H]2CC3(CCC3)Oc3ncc(CC(C)(C)C)cc32)cc1` [Example 885] gave an IC50 [1, 6] of 0.099 µM.
Compound `CCO[C@@H](C)C(=O)N[C@@H](Cc1cccc(-c2nccs2)c1)[C@H](O)CN[C@H]1CC2(CCC2)Oc2ncc(CC(C)(C)C)cc21` [Example 893] has an IC50 [1, 6] of 0.012 µM.
`CCO[C@H](C)C(=O)N[C@@H](Cc1cccc(-c2nccs2)c1)[C@H](O)CN[C@H]1CC2(CCC2)Oc2ncc(CC(C)(C)C)cc21` [Example 894] gave an IC50 [1, 6] of 0.018 µM.
With `COCC(=O)N[C@@H](Cc1ccc2c(c1)OCO2)[C@H](O)CN[C@H]1CC2(CC(F)(F)C2)Oc2ncc(CC(C)(C)C)cc21` [compound 52] the IC50 [1, 8] was 0.103 µM and the IC50 [2, 3] was 0.042 µM.
In the case of `COCC(=O)N[C@@H](Cc1ccc(F)cc1)[C@H](O)CNC1CC2(CC(F)(F)C2)Oc2ncc(CC(C)(C)C)cc21` (stereo partly drawn) [compound 53], the IC50 [1, 8] is reported as 0.065 µM and the IC50 [2, 3] is reported as 0.011 µM.
With `COCC(=O)N[C@@H](Cc1ccccc1)[C@H](O)CNC1CC2(CC(F)(F)C2)Oc2ncc(CC(C)(C)C)cc21` (stereo partly drawn) [compound 54] the IC50 [1, 8] was 0.066 µM and the IC50 [2, 3] was 0.003 µM.
`CC(=O)N[C@@H](Cc1ccc2c(c1)OCO2)[C@H](O)CN[C@H]1CC2(CC(F)(F)C2)Oc2ncc(CC(C)(C)C)cc21` [compound 55] gave an IC50 [1, 8] of 0.083 µM and an IC50 [2, 3] of 0.0236 µM.
`CO[C@H](C)C(=O)N[C@@H](Cc1cccc(C#N)c1)[C@H](O)CN[C@H]1CC2(CCC2)Oc2ncc(CC(C)(C)C)cc21` [compound 56] showed an IC50 [1, 8] of 0.00305 µM and an IC50 [2, 3] of 0.00263 µM.
For `COCC(=O)N[C@@H](Cc1cccc(C#N)c1)[C@H](O)CN[C@H]1CC2(CCC2)Oc2ncc(CC(C)(C)F)cc21` [compound 57], the IC50 [1, 8] was 0.0053 µM and the IC50 [2, 3] was 0.00294 µM.
`CO[C@H](C)C(=O)N[C@@H](Cc1cccc(C#N)c1)[C@H](O)CN[C@H]1CC2(CCC2)Oc2ncc(CC(C)(C)F)cc21` [compound 58] gave an IC50 [1, 8] of 0.00678 µM and an IC50 [2, 3] of 0.00575 µM.
With `COC(C(=O)N[C@@H](Cc1ccc(F)cc1)[C@H](O)CN[C@H]1CC2(CCC2)Oc2ncc(CC(C)(C)C)cc21)C(F)(F)F` (stereo partly drawn) [compound 59] the IC50 [1, 8] was 0.171 µM and the IC50 [2, 3] was 0.364 µM.
For `CC(C)(C)Cc1cnc2c(c1)[C@@H](NC[C@@H](O)[C@H](Cc1cccc(C#N)c1)NC(=O)[C@H](O)C(F)(F)F)CC1(CCC1)O2` [compound 61], the IC50 [1, 8] was 0.00965 µM and the IC50 [2, 3] was 0.00323 µM.
`CC(C)(C)Cc1cnc2c(c1)[C@@H](NC[C@@H](O)[C@H](Cc1cccc(C#N)c1)NC(=O)[C@@H](O)C(F)(F)F)CC1(CCC1)O2` [compound 62] showed an IC50 [1, 8] of 0.00983 µM and an IC50 [2, 3] of 0.00401 µM.
`CO[C@@H](C(=O)N[C@@H](Cc1ccc(F)cc1)[C@H](O)CN[C@H]1CC2(CCC2)Oc2ncc(CC(C)(C)C)cc21)C(F)(F)F` [compound 63] was tested, and the IC50 [1, 8] was 0.128 µM and the IC50 [2, 3] was 0.258 µM.
In the case of `CO[C@H](C(=O)N[C@@H](Cc1ccc(F)cc1)[C@H](O)CN[C@H]1CC2(CCC2)Oc2ncc(CC(C)(C)C)cc21)C(F)(F)F` [compound 64], the IC50 [1, 8] is reported as 0.0797 µM and the IC50 [2, 3] is reported as 0.617 µM.
`COC(C(=O)N[C@@H](Cc1cccc(F)c1)[C@H](O)CN[C@H]1CC2(CCC2)Oc2ncc(CC(C)(C)C)cc21)C(F)(F)F` (stereo partly drawn) [compound 65] was tested, and the IC50 [1, 8] was 0.127 µM and the IC50 [2, 3] was 0.0343 µM.
`CC(C)(C)Cc1cnc2c(c1)[C@@H](NC[C@@H](O)[C@H](Cc1cccc(F)c1)NC(=O)C1CN(C3CCC3)C(=O)C1(C)C)CC1(CCC1)O2` (stereo partly drawn) [compound 66] was tested, and the IC50 [1, 8] was 1.11 µM and the IC50 [2, 3] was 0.0436 µM.
`CC(C)(C)Cc1cnc2c(c1)[C@@H](NC[C@@H](O)[C@H](Cc1ccc(F)cc1)NC(=O)[C@H](O)C(F)(F)F)CC1(CCC1)O2` [compound 68] showed an IC50 [1, 8] of 0.0553 µM and an IC50 [2, 3] of 0.0486 µM.
`CC(C)(C)Cc1cnc2c(c1)[C@@H](NC[C@@H](O)[C@H](Cc1ccc(F)cc1)NC(=O)[C@@H](O)C(F)(F)F)CC1(CCC1)O2` [compound 69] was tested, and the IC50 [1, 8] was 0.0784 µM and the IC50 [2, 3] was 0.0336 µM.
Work on `CO[C@H](C)C(=O)N[C@@H](Cc1ccc(Cl)c(F)c1)[C@H](O)CN[C@H]1CC2(CCC2)Oc2ncc(CC(C)(C)F)cc21` [compound 70] yielded an IC50 [1, 8] of 0.138 µM and an IC50 [2, 3] of 0.0558 µM.
`CO[C@H](C)C(=O)N[C@@H](Cc1cccc(F)c1F)[C@H](O)CN[C@H]1CC2(CCC2)Oc2ncc(CC(C)(C)F)cc21` [compound 71] gave an IC50 [1, 8] of 0.0927 µM and an IC50 [2, 3] of 0.0339 µM.
`CO[C@H](C)C(=O)N[C@@H](Cc1ccc(F)c(Cl)c1)[C@H](O)CN[C@H]1CC2(CCC2)Oc2ncc(CC(C)(C)F)cc21` [compound 72] showed an IC50 [1, 8] of 0.0605 µM and an IC50 [2, 3] of 0.0291 µM.
`COCC(=O)N[C@@H](Cc1cccc(F)c1)[C@H](O)CN[C@H]1CC2(CCC2)Oc2ncc(CC(C)(C)C(F)(F)F)cc21` [compound 73] was tested, and the IC50 [1, 8] was 0.0531 µM and the IC50 [2, 3] was 0.016 µM.
Work on `CO[C@H](C)C(=O)N[C@@H](Cc1cccc(F)c1)[C@H](O)CN[C@H]1CC2(CCC2)Oc2ncc(CC(C)(C)C(F)(F)F)cc21` [compound 74] yielded an IC50 [1, 8] of 0.0949 µM and an IC50 [2, 3] of 0.0305 µM.
In the case of `CO[C@H](C)C(=O)N[C@@H](Cc1ccc(F)cc1)[C@H](O)CN[C@H]1CC2(CCC2)Oc2ncc(CC(C)(C)C(F)(F)F)cc21` [compound 75], the IC50 [1, 8] is reported as 0.0199 µM and the IC50 [2, 3] is reported as 0.00668 µM.
Compound `COCC(=O)N[C@@H](Cc1ccc(F)cc1)[C@H](O)CN[C@H]1CC2(CCC2)Oc2ncc(CC(C)(C)C(F)(F)F)cc21` [compound 76] has an IC50 [1, 8] of 0.0108 µM and an IC50 [2, 3] of 0.00368 µM.
In the case of `CC(=O)N[C@@H](Cc1ccc(F)c(OC(F)(F)F)c1)[C@H](O)CN[C@H]1CC2(CCC2)Oc2ncc(CC(C)(C)F)cc21` [compound 77], the IC50 [1, 8] is reported as 0.016 µM and the IC50 [2, 3] is reported as 0.00488 µM.
With `COc1cc(C[C@H](NC(C)=O)[C@H](O)CN[C@H]2CC3(CCC3)Oc3ncc(CC(C)(C)C)cc32)ccc1F` [compound 78] the IC50 [1, 8] was 0.00763 µM and the IC50 [2, 3] was 0.00449 µM.
`COCC(=O)N[C@@H](Cc1ccc(F)c(OC)c1)[C@H](O)CN[C@H]1CC2(CCC2)Oc2ncc(CC(C)(C)C)cc21` [compound 79] was tested, and the IC50 [1, 8] was 0.0148 µM and the IC50 [2, 3] was 0.00637 µM.
`COC(C)C(=O)NC(Cc1ccc2c(c1)OCO2)C(O)CNC1CC2(CC(O)C2)Oc2cnccc21` [compound 245, (2R)—N-((1S,2R)-1-(1,3-benzodioxol-5-ylmethyl)-2-hydroxy-3-(((1r,3R,4′S)-3-hydroxy-3′,4′-dihydrospiro[cyclobutane-1,2′-pyrano[2,3-c]pyridin]-4′-yl)amino)propyl)-2-(methyloxy)propanamide] was tested, and the IC50 [2, 9] was 40 µM.
With `COCC(=O)N[C@@H](Cc1ccc(F)cc1)[C@H](O)CN[C@H]1C[C@]2(C[C@@H](C#N)C2)Oc2ncc(CC(C)(C)C)cc21` [compound 261, N-((1S,2R)-3-(((1r,3S,4′S)-3-cyano-6′-(2,2-dimethylpropyl)-3′,4′-dihydrospiro[cyclobutane-1,2′-pyrano[2,3-b]pyridin]-4′-yl)amino)-1-((4-fluorophenyl)methyl)-2-hydroxypropyl)-2-(methyloxy)acetamide] the IC50 [2, 9] was 0.0389 µM.
`CC(=O)NC(Cc1ccc(F)cc1)C(O)CNC1CC2(CC(C#N)C2)Oc2ncc(CC(C)(C)C)cc21` [compound 262, N-((1S,2R)-3-(((1r,3S,4′S)-3-cyano-6′-(2,2-dimethylpropyl)-3′,4′-dihydrospiro[cyclobutane-1,2′-pyrano[2,3-b]pyridin]-4′-yl)amino)-1-((4-fluorophenyl)methyl)-2-hydroxypropyl)acetamide] showed an IC50 [2, 9] of 0.0465 µM.
Compound `CC(=O)N[C@@H](Cc1cccc(F)c1)[C@H](O)CN[C@H]1CC2(CCC2)Oc2ncc([C@@H](F)[C@H](C)C(F)(F)F)cc21` [compound 323] has an IC50 ([2]; Table 1, read-out: BACE1 FRET assay) of 0.365 µM.
For `COCC(=O)N[C@@H](Cc1cccc(-c2nc(C)cs2)c1)[C@H](O)CN[C@H]1CC2(CCC2)Oc2ncc(CC(C)(C)C)cc21` [compound 758], the IC50 [1, 10] was 0.014 µM.
Work on `COCC(=O)N[C@@H](Cc1cccc(-c2ccccn2)c1)[C@H](O)CN[C@H]1CC2(CCC2)Oc2ncc(CC(C)(C)C)cc21` [compound 841, N-((1S,2R)-3-(((4′S)-6′-(2,2-dimethylpropyl)-3′,4′-dihydrospiro[cyclobutane-1,2′-pyrano[2,3-b]pyridin]-4′-yl)amino)-2-hydroxy-1-(3-(2-pyridinyl)benzyl)propyl)-2-methoxyacetamide] yielded an IC50 [1, 10] of 0.018 µM.
Compound `COCC(=O)N[C@@H](Cc1cccc(-c2nccs2)c1F)[C@H](O)CN[C@H]1CC2(CCC2)Oc2ncc(CC(C)(C)C)cc21` [compound 908] has an IC50 [1, 6] of 0.1 µM.
Compound `C#Cc1cccc(C[C@H](NC(=O)COC)[C@H](O)CN[C@H]2CC3(CCC3)Oc3ncc(CC(C)(C)C)cc32)c1F` [compound 911] has an IC50 [1, 6] of 0.144 µM.
`COCC(=O)N[C@@H](Cc1cc(Br)cc(OC)c1)[C@H](O)CN[C@H]1CC2(CCC2)Oc2ncc(CC(C)(C)C)cc21` [compound 917] was tested, and the IC50 [2, 7] was 0.014 µM.
